According to patent US4098823A, “Monospiroalkyl derivatives of prostaglandins” (Miles Laboratories, Inc., priority 1977, dated 1978):
≈ marks a conversion by molar mass, not a printed value.

Assays:
Rat Uterus = assay: Effects on the Rat Uterus in Vitro; assay type: cell-based; conditions: for EC50: Rattus norvegicus, read-out: Test F Rat Uterus, Activity Value (ED50)
Procedure: The uterine stimulant effect of test compounds was determined in segments of uterus obtained from rats (140-160 g) pretreated subcutaneously with 1 mg/kg of diethyl-stilbesterol 18 hours before the experiment. The tissues were placed in 10 ml chambers filled with de-Jalon solution at 29° C, were aerated and bubbled with 95% O2 and 5% CO2, and were prepared for isometric recording with force displacement transducers. Preparations were stretched to an initial tension of 1 g and were left undisturbed for 30 minutes. Carbachol (1 mcg/ml) was then added to the bath and a response was recorded. After a 10 minute interval the carbachol procedure was repeated. Responses to increasing concentrations of a test compound (0.001 to 10 mcg/ml with one log intervals) were then recorded every 10 minutes. Preparations were washed four times after each response. All doses of compounds were administered in a 0.1 ml volume. Because it has been observed that the magnitude of the second response to carbachol (approximately 10% greater than the first) is close to the maximal response of the tissue, such value was taken as a measure of the sensitivity of a particular segment. Responses to each concentration of the test compound were expressed in terms of percentage of the second response to carbachol and the ED50 (dose producing a response 50% that of carbachol) was calculated graphically. Activity was scored according to the following scale: […]

rat colon = assay: Cascade Assay, colon (smooth muscle stimulant effect); assay type: cell-based; conditions: superfused, 50% of maximum (PGF2α)
Procedure: (§1) The smooth muscle stimulant effects of test compounds were determined simultaneously in four different tissues that are known to be reactive to naturally occurring prostaglandins. Segments of rat stomach fundus, rat colon, chick rectum and rabbit aortic strip were obtained as described by: Vane, J. R., Brit. J. Pharmacol., 12: 344 (1957); Regoli, D. and Vane, J. R., Brit. J. Pharmacol., 23: 351 (1964); Mann, M. and West, G. B., Brit. J. Pharmacol., 5: 173 (1950); and Furchgott, R. F. and Bhadrakom, R., J. Pharmacol. Exper. Ther., 108: 129 (1953). One end of each preparation was tied to the bottom of a 10 ml tissue chamber and the other to a force displacement transducer (Grass FT-03) for continuous tension recording. The stomach, colon, and rectum segments were stretched to an initial tension of 1 g, while the aortic strip was subjected to 4 g. All preparations were left undisturbed for 1 hour prior to testing. The chambers were equipped with an external jacket through which water, maintained at 40° C, was circulated. Preparations were arranged one beneath the other in descending order (aorta, stomach, colon and rectum). Provision was made for bathing the four tissues successively so that they were superfused with the same fluid (Gaddum, H. J., Brit. J. Pharmacol., 6: 321 [1953]. The bathing fluid consisted of: Krebs bicarbonate solution aerated with a mixture of 95% O2 and 5% CO2 and warmed at 37° C; atropine sulphate (0.1 mcg/ml), phenoxybenzamine hydrochloride (0.1 mcg/ml), propranolol hydrochloride (3.0 mcg/ml), methysergide maleate (0.2 mcg/ml) and brompheniramine maleate (0.1 mcg/ml) were added to eliminate the possibility of smooth muscle responses being due to stimulation of cholinergic, adrenergic, serotonin or histamine receptors. The fluid was circulated by means of a roller pump and was allowed to drip over the preparations at a rate of 10 ml/minute.
(§2) Test compounds were diluted from stock solutions so as to administer quantities ranging from 0.001 100,000 ng in a volume of 0.5 ml. The compounds were applied by dripping on the uppermost tissue, at intervals of 10 to 20 minutes. Maximal increases in tension after each dose were measured and the results were used to plot dose-response curves. ED50 data (doses necessary to produce a response 50% of maximum) were then calculated graphically for each tissue.
(§3) Activity in each tissue was scored according to the following scale: […]

Gastric Secretion = assay: Effects on Gastric Secretion in the Rat; assay type: in vivo; conditions: pylorus-ligated rat, subcutaneous, 2 x 1.5 mg/kg (total 3.0 mg/kg), 4 hours
Procedure: A procedure based on that described by Lipmann (J. Pharm. Pharmacol., 21:335 [1968]) was used to assess the influence of test compounds on gastric secretion. Rats of one sex weighing 150 to 200 g were randomly divided into groups of six animals each and fasted for 48 hours previously to the experiments, water being available adlibitum. The animals were anesthetized with ether, the abdomen was opened through a midline incision and the pylorus was ligated. Test compounds were diluted from stock solution so as to administer a dose of 1.5 mg/kg in a volume equivalent to 1 ml/kg. Subcutaneous injections were applied immediately after surgery and again 2 hours later, so that a total dose of 3.0 mg/kg was administered. Dilutions were made with phosphate buffer (pH 7.38) as recommended by Lee et al. (Prostaglandins 3:29 [1973]), in order to insure adequate stability of drugs at the subcutaneous depot. Each compound was tested in one group of rats; an additional control group received only the vehicle.
Four hours after pyloric ligation the animals were killed with ether, the cardias ligated and the stomachs removed. The volume of gastric secretion was measured and the contents centrifuged at 500 rpm for 10 minutes. Total acid in the supernatant was titrated against a 0.1 N sodium hydroxide solution and the amount expressed in mEq.
Volume and total acid values of the treated group were compared with those of the controls by the "T" test. Antisecretory activity was scored according to the following scale: […]

rat stomach fundus = assay: Cascade Assay, stomach (smooth muscle stimulant effect); assay type: cell-based; conditions: superfused, 50% of maximum (PGE1)
Procedure: as §1, §2, §3

rabbit aortic strip = assay: Cascade Assay, aorta (smooth muscle stimulant effect); assay type: cell-based; conditions: superfused, 50% of maximum (PGA2)
Procedure: as §1, §2, §3

chick rectum = assay: Cascade Assay, rectum (smooth muscle stimulant effect); assay type: cell-based; conditions: superfused, 50% of maximum (PGE1)
Procedure: as §1, §2, §3

[1] = tested on: Blood Pressure and Heart Rate; assay: Effects on Blood Pressure and Heart Rate in the Anesthetized Cat; assay type: in vivo; conditions: intravenous, 0.01 to 10.0 mcg/kg, scored only on hypotension;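 further: Anesthetized cats given intravenous doses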
Procedure: The acute effects of test compounds on blood pressure and heart rate were determined in cats of either sex anesthetized with a mixture of pentobarbital sodium (35 mg/kg, i.v.) and barbital sodium (100 mg/kg, i.v.). Cannulas were placed in the trachea to allow adequate spontaneous ventilation, in a femoral artery for blood pressure recording with a strain gage transducer, and in a saphenous vein for drug administration. Heart rate was recorded by means of a cardiotachometer driven by the R wave of the electrocardiogram. After a period of 10 minutes of stable recordings of blood pressure and heart rate, the test compound was administered intravenously at doses increasing from 0.01 to 10.0 mcg/kg, spaced one log and injected at 10 minutes intervals. All doses were injected in a volume of 0.1 ml/kg. Modifications of blood pressure and heart rate induced by the test compound were expressed both in absolute units (mmHg and beats/minutes) and as percent of values recorded immediately before administration of each dose. Biphasic responses were tabulated in the order in which they occur. The direction of the observed changes was also noted (+ for increases and - for decreases).
Activity of compounds in this test was judged only on the basis of the degree of hypotension observed. Thus, the ED50 mmHg (dose decreasing blood pressure by 50 mmHg) was calculated graphically and the compound scored according to the following scale: […]

[2] = in vitro, 29° C, response 50% that of carbachol

SMILES | EC50 (Rat Uterus; [2]) | Test E Cascade Assay, Colon, Activity Value (ED50) (rat colon) | Test B Activity Value (% decrease in acidity, inhibition of gastric secretion) (Gastric Secretion) | Test E Cascade Assay, Stomach, Activity Value (ED50) (rat stomach fundus) | Test E Cascade Assay, Aorta, Activity Value (ED50) (rabbit aortic strip) | Test E Cascade Assay, Rectum, Activity Value (ED50) (chick rectum) | Test F Rat Uterus, Activity Value (ED50) (Rat Uterus; [2]) | Test D Activity Value (ED50 mmHg, decrease in blood pressure) [1] | magnitude of second response to carbachol relative to the first (Rat Uterus; carbachol 1 mcg/ml, second response greater than the first)
COC(=O)CCC/C=C\C[C@H]1C(=O)CCC[C@@H]1/C=C/[C@@H](O)C1CC2(CCC2)C1 (relative stereo) [TR-4758, dl Methyl-7-{6-ozo-2R-∂3S-hydroxy-3-(spiro[3.3]hept-2-yl)-1E-propenyl]cyclohex-1R-yl}hept-5Z-enoate] | > 10 µg/mL | 0 (>10000) | 0 (<26) | 0 (>10000) | 0 (>10000) | 0 (>10000) |  |  | 
COC(=O)CCCCCC[C@H]1C(=O)C=C[C@H]1/C=C/[C@H](O)C1CC2(CCC2)C1 [TR-4127, Methyl 7-{5-oxo-2R-[3R-hydroxy-3-(spiro[3.3]hept-2-yl)-1E-propenyl]cyclopent-3-en-1R-yl}hepanoate] |  | 0 (>10000) |  | 0 (>10000) | 0 (>10000) | 0 (>10000) | 0 (>10) | 0 (>10.0) | 
O=C1C[C@@H](O)[C@H](/C=C/[C@H](O)C2CC3(CCC3)C2)[C@H]1CCCCCCCO [TR-4713, 7-{3R-hydroxy-5-oxo-2R-[3R-hydroxy-3-(spiro[3.3]hept-2-yl)-1E-propenyl]cyclopent-1R-yl}heptan-1-ol] | > 10 µg/mL | 0 (>10000) | 4 (76-100) | 0 (>10000) | 0 (>10000) | 1 (1001 - 10000) |  |  | 
CCOC(=O)CCC/C=C\C[C@H]1C(=O)C[C@@H](O)[C@@H]1/C=C/[C@H](O)C1CC2(CCC2)C1 [TR-4726, Ethyl 7-{3R-hydroxy-5-oxo-2R-[3R-hydroxy-3-(spiro[3.3]hept-2-yl)-1E-propenyl]cyclopent-1R-yl}hept-5Z-enoate] | > 10 µg/mL | 0 (>10000) | 0 (<26) | 0 (>10000) | 0 (>10000) | 0 (>10000) |  |  | 
CCOC(=O)CCC/C=C\C[C@H]1C(=O)C[C@@H](O)[C@@H]1/C=C/[C@@H](O)C1CC2(CCC2)C1 [TR-4727, Ethyl 7-{3R-hydroxy-5-oxo-2R-[3S-hydroxy-3-(spiro[3.3]hept-2-yl)-1E-propenyl]cyclopent-1R-yl}hept-5Z-enoate] | > 10 µg/mL | 0 (>10000) | 0 (<26) | 0 (>10000) | 0 (>10000) | 0 (>10000) |  |  | 
C[N+](C)(C)CCOC(N)=O [carbachol, reference compound] |  |  |  |  |  |  |  |  | approximately 10%

The next lines start with results.

EC50 (Rat Uterus; [2]) | SMILES | Test E Cascade Assay, Colon, Activity Value (ED50) (rat colon) | Test B Activity Value (% decrease in acidity, inhibition of gastric secretion) (Gastric Secretion) | Test E Cascade Assay, Stomach, Activity Value (ED50) (rat stomach fundus) | Test E Cascade Assay, Aorta, Activity Value (ED50) (rabbit aortic strip) | Test E Cascade Assay, Rectum, Activity Value (ED50) (chick rectum) | Test F Rat Uterus, Activity Value (ED50) (Rat Uterus; [2]) | Test D Activity Value (ED50 mmHg, decrease in blood pressure) [1] | magnitude of second response to carbachol relative to the first (Rat Uterus; carbachol 1 mcg/ml, second response greater than the first)
> 10 µg/mL | COC(=O)CCC/C=C\C[C@H]1C(=O)CCC[C@@H]1/C=C/[C@H](O)C1CC2(CCC2)C1 (relative stereo) [TR-4759, dl Methyl-7-{6-oxo-2R-[3R-hydroxy-3-(spiro[3.3]hept-2-yl)-1E-propenyl]cyclohex-1R-yl}hept-5Z-enoate] | 0 (>10000) | 0 (<26) | 0 (>10000) | 0 (>10000) | 0 (>10000) |  |  | 
> 10 µg/mL | CC1([C@@H](O)/C=C/[C@H]2[C@H](O)CC(=O)[C@@H]2CCCCCCCO)CC2(CCC2)C1 [TR-4841, 7-{3R-hydroxy-5-oxo-2R-[3S-hydroxy-3-(2-methylspiro[3.3]hept-2-yl)-1E-propenyl]cyclopent-1R-yl}heptan-1-ol] | 0 (>10000) | 0 (<26) | 0 (>10000) | 0 (>10000) | 0 (>10000) |  |  | 
> 10 µg/mL | COC(=O)CCCCCC[C@H]1C(=O)C[C@@H](O)[C@@H]1/C=C/[C@H](O)C1(C)CC2(CCC2)C1 [TR-4842, Methyl 7-{3R-hydroxy-5-oxo-2R-[3S-hydroxy-3-(2-methylspiro[3.3]hept-2-yl)-1E-propenyl]cyclopent-1R-yl}heptanoate] | 0 (>10000) | 0 (<26) | 0 (>10000) | 0 (>10000) | 0 (>10000) |  |  | 
0.101 to 1 µg/mL (≈ 0.267 to 2.64 µM) | CC1([C@H](O)/C=C/[C@H]2[C@H](O)CC(=O)[C@@H]2CCCCCCCO)CC2(CCC2)C1 [TR-4852, 7-{3R-hydroxy-5-oxo-2R-[3R-hydroxy-3-(2-methylspiro[3.3]hept-2-yl)-1E-propenyl]cyclopent-1R-yl}heptan-1-ol] | 0 (>10000) | 2 (26-50, significant) | 0 (>10000) | 0 (>10000) | 0 (>10000) |  |  | 
